Common to all, as to experiment: growth of human tumour cells (NCI), 48 h
Experiment [1] deals with KM12.
Experiment [2] relates to HT-29.
Experiment [3] has as its system SN12C.
For experiment [4], the system named is UACC-62.
For experiment [5], the system named is SR.
For experiment [6], the system named is IGROV-1.
Experiment [7] deals with SW-620.
Experiment [8] relates to A549.
Experiment [9] relates to TK-10.
The subject of experiment [10] is NCI-H23.
The test system of experiment [11] is SNB-19.
Experiment [12] has as its system UO-31.
Experiment [13] deals with HCT-15.
Experiment [14] concerns U-251.
Experiment [15] deals with SF-295.
The subject of experiment [16] is HL-60.
The test system of experiment [17] is HOP-92.
In experiment [18] the test system is SK-MEL-5.

From ChEMBL document CHEMBL1201862, “PubChem BioAssay data set” (2004) come the findings set out here.

The structures appear in SMILES notation.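 Protocol summary: plate cells (96-well), add compound at 5 concentrations, incubate 48 h, interpolate endpoints linearly. GI50 is the concentration that inhibits growth by half.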 The source made the active and inactive calls. Cut-off read from the data, not from the text of the source: active = GI50 up to about 1.1 µM and inactive = higher.

Take `CCOC(=O)C1(C#N)C(c2ccccc2)CC(O)(c2ccc([N+](=O)[O-])cc2)C(C(=O)c2ccc([N+](=O)[O-])cc2)C1c1ccccc1` (stereo not drawn): the GI50 in experiment [1], in experiment [2], in experiment [3], in [4], in experiment [5] and in experiment [6] was > 100 µM (inactive) throughout. Besides, the GI50 in experiment [7] was > 100 µM (inactive); in experiment [8], > 100 µM (inactive); in experiment [9], > 100 µM (inactive); in experiment [10], 42.2 µM (inactive); in experiment [11], 32.2 µM (inactive); in experiment [12] it was > 100 µM (inactive). In addition, the GI50 in [13] is > 100 µM; in experiment [14], > 100 µM (inactive); in experiment [15] it was > 100 µM (inactive); in [16], > 100 µM (inactive).

Take `CC(=O)OC1CC2OC(Cc3ccccc32)O1` (stereo not drawn): the GI50 in experiment [1] is > 100 µM (inactive); in [2], > 100 µM (inactive); in experiment [3], 64.1 µM (inactive); in experiment [4], > 100 µM (inactive); in [5] it was > 100 µM (inactive); in experiment [6], > 100 µM (inactive). The GI50 in experiment [7], in [8], in experiment [9], in experiment [10], in experiment [11] and in experiment [12] was > 100 µM (inactive) throughout. Also, the GI50 is 34 µM (inactive) in experiment [17], 52.1 µM (inactive) in [14], 65.3 µM (inactive) in [15] and > 100 µM (inactive) in experiment [16].

Take `COC(=O)C(Cc1nc2ccc(Cl)cc2nc1O)/C(=N/O)C(=O)Nc1cccc(Cl)c1C` (stereo not drawn): the GI50 in [1], in [2], in experiment [3], in experiment [4], in experiment [5] and in experiment [6] was > 100 µM (inactive) throughout. Further, the GI50 in experiment [7], in experiment [8], in [18], in [9], in experiment [10] and in [11] was > 100 µM (inactive) in each case. The GI50 in experiment [12] was > 100 µM (inactive); in experiment [13], > 100 µM; in experiment [14] it was > 100 µM (inactive); in experiment [15], > 100 µM (inactive); in experiment [16], > 100 µM (inactive).

Take `CCOc1cccc2sc(N)nc12`: the GI50 in experiment [1], in experiment [2], in experiment [3], in [4], in [6] and in [7] was > 100 µM (inactive) in each case. Moreover, the GI50 in [8] is > 100 µM (inactive); in experiment [18], > 100 µM (inactive); in [9] it was > 100 µM (inactive); in experiment [10], > 100 µM (inactive); in experiment [11], > 100 µM (inactive); in experiment [12], 56.1 µM (inactive). The GI50 in experiment [17] is > 100 µM (inactive); in [13], > 100 µM; in experiment [14], > 100 µM (inactive); in experiment [15], > 100 µM (inactive); in experiment [16], > 100 µM (inactive).

As for `CCOC(=O)CC1=CSC2=NCCN12`, the GI50 in [1], in [2], in [3], in experiment [4], in [6] and in experiment [7] was > 100 µM (inactive) throughout. The GI50 in [8], in [18], in [9], in experiment [10], in [11] and in experiment [12] was > 100 µM (inactive) each time. Further, the GI50 is > 100 µM (inactive) in experiment [17]; > 100 µM in experiment [13]; > 100 µM (inactive) in experiment [14]; > 100 µM (inactive) in experiment [15]; > 100 µM (inactive) in experiment [16].
